These are literature values, as cited in patent publication US20120315337A1, “MULTIPARTICULATE 5-HTP COMPOSITIONS AND RELATED METHODS” (priority 2011, published 2012).

Molecules are shown by their SMILES.

The conditions of this data set: comparison of antidepressant drug fluoxamine with 5-HTP; background statement.

`N[C@@H](Cc1c[nH]c2ccc(O)cc12)C(=O)O` [5-HTP, L-5-hydroxytryptophan]: the “efficacy in clinical trial” value is given as “equally effective”.

For the compound `COCCCC/C(=N\OCCN)c1ccc(C(F)(F)F)cc1` [fluoxamine], the “efficacy in clinical trial” value is reported as “equally effective”.
